Measured values taken from article PMC4879574, “Identification of Leishmania donovani Topoisomerase 1 inhibitors via intuitive scaffold hopping and bioisosteric modification of known Top 1 inhibitors” (Scientific Reports, 2016).

Legend:
[1] = target: Leishmania donovani Topoisomerase 1 (LdTop1) (Leishmania donovani, UniProt A0A3Q8IHS4+Q8WQM6); experiment: Plasmid DNA relaxation assay, LdTop1 (simultaneous incubation); format: biochemical; conditions: plasmid DNA relaxation; averages of three experiments; read-out: LDTop1 inhibition (EC50)
Procedure: (§1) To investigate the inhibitory effect of our library compounds on the DNA relaxation activity of the recombinant Human and Leishmania topoisomerase 1 (Table 2), assays were performed involving supercoiled plasmid DNA, the enzymes (HTop1 and LdTop1) and our molecules. The enzymes were purified by the standard literature procedure.
All the experiments were conducted thrice and representative data from once set of them are expressed as mean ± SD.
(§2) The type I DNA topoisomerase are assayed by decreased mobility of the relaxed isomers of supercoiled pBS (SK^+) [pBlue-script (SK^+)] DNA in agarose gel. The relaxation assay was carried out as described previously with LdTop1B and HTop I, diluted in the relaxation buffer (25 mM Tris–HCl, pH 7.5, 5% glycerol, 0.5 mM DTT, 10 mM MgCl2, 50 mM KCl, […] and […] BSA) and supercoiled plasmid pBS (SK^+) DNA (85–95% were negatively supercoiled, with remainder being nicked circles)[9][28][29]. The reconstituted enzyme LdTop1B was assayed at 50 mM KCl concentration as described before. For all kinetic studies, the reaction mixtures containing the buffer and DNA were heated to 37 °C before addition of the enzymes. The reactions were rapidly quenched using stop solution and kept on ice. The gels were stained with ethidium bromide (EtBr) ([…]) and the amount of supercoiled monomer DNA band fluorescence were quantified by integration using Gel Doc 2000 under UV illumination (Bio-Rad Quantity One Software), as described previously.
Cells harvested from 1 litre of culture were separately lysed by lysozyme/sonication, and the proteins were purified through Ni-NTA (Ni^2+-nitriloacetate-agarose column (Qiagen, Hilden, Germany) followed by a phospho-cellulose column (P11 cellulose; Whatman, Maidstone Kent, UK) as described previously. Finally, the purified proteins LdTOP1L and LdTOP1S were stored at −70 °C. The concentrations of each protein were quantified by using Bradford Reagent (PIERCE, Thermo Fisher Scientific Inc., Rockford, USA). Purified LdTOP1L was mixed with purified LdTOP1S at a molar ratio of 1:1 to a total protein concentration of 0.5 mg/ml in reconstitution buffer [50 mM potassium phosphate, pH 7.5, 0.5 mM DTT, 1 mM EDTA, 0.1 mM PMSF and 10% (v/v) glycerol]. The mixture was dialyzed overnight at 4 °C and dialyzed fractions were used for plasmid relaxation activity.

Human Top1 (HTop1) = target: T1, Human Top1 (HTop1) (Homo sapiens, UniProt P11387); experiment: Plasmid DNA relaxation assay, HTop1; format: biochemical; conditions: averages of three experiments, read-out: HTop1 inhibition (EC50)
T1 construct: made in house; host or cells: Sf-9 insect cells infected with recombinant baculovirus (gift from Prof. J. J. Champoux)
T1 sequence (P11387 1-765): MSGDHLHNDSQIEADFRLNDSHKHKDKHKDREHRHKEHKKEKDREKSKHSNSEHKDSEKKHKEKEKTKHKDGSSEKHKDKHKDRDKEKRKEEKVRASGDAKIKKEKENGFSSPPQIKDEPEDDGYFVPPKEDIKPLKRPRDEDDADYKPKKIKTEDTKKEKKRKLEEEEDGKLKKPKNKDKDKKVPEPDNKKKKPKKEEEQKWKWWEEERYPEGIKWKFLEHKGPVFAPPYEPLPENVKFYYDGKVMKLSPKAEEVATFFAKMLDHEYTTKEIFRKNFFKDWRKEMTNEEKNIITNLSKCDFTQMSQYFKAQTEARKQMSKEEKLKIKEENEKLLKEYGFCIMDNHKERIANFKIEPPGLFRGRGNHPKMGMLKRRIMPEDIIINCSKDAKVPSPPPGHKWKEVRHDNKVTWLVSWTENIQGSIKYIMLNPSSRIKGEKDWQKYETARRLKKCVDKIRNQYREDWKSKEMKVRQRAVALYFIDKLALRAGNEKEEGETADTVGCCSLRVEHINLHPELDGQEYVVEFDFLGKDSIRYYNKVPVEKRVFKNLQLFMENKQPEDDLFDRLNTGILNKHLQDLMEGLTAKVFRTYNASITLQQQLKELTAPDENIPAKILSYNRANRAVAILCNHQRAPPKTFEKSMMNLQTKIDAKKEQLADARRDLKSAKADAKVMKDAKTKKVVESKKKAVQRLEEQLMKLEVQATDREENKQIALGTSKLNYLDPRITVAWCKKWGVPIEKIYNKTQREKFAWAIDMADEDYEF
Procedure: as §1, §2
The wild-type HTop1 (91 kDa) was purified from Sf-9 insect cells infected with the recombinant baculovirus (a kind gift from Prof. J. J. Champoux). Approximately, 1 * 10^9 Sf-9 cells were infected with the recombinant virus, and cells were harvested after 48-h of infection. The cells were lysed and enzyme was purified as described. Briefly, at 48 h post-infection, approximately 3 * 10^9 Sf-9 cells were harvested by centrifugation for 5 min at 400 * g. The cells were resuspended in 1 liter of ice-cold phosphate-buffered saline and centrifuged for 5 min at 400 * g. The nuclei were washed twice in 80 ml of lysis buffer minus Triton X-100 and resuspended in 40 ml of resuspension buffer (50 mM KCl, 10 mM Tris-Cl, pH 7.5, 2 mM MgCl2, 25 mM DTT, 0.4 mg/ml phenylmethylsulfonyl fluoride, 0.12 mg/ml aprotinin). The nuclear extract was stirred for 5 min at ~200 rpm. With continued stirring, 50 ml of polyethylene glycol (PEG) buffer (18% PEG 8000, 1 M NaCl, 10% glycerol) was added dropwise in order to precipitate the DNA. The PEG precipitate was pelleted by centrifugation and the resulting PEG supernatant was dialyzed against 4 liters of potassium phosphate buffer. The dialyzed PEG supernatant passed over a 10-ml bed volume of phosphocellulose (Whatman P11) equilibrated with PPB. The HTop1 flowed through the PS column and then passed over a Mono Q column followed by loaded onto a Mono S column. The Mono S column was eluted with a 25-ml 50–200 mM KPO4, pH 7.4, gradient. […] The peak Mono S fractions were pooled, concentrated with an Amicon ultrafiltration cell, dialyzed into storage buffer (50% glycerol, 10 mM Tris-hydrochloride, pH 7.5, 1 mM DTT, 1 mM EDTA), and stored at −20 °C.

[2] = tested on: L. donovani AG83 promastigotes; experiment: MTT assay on extracellular promastigotes; format: cell-based; conditions: Leishmania donovani, 12 h, read-out: Anti-promastigote activity IC50
Procedure: Next, compound 4 was screened against extracellular promastigotes.
L. donovani AG83 promastigotes (3.0 × 10^6 cells/ml) are incubated with different concentrations of drugs/compounds under study (1, 2, 5, 10 and 20 μM) for 12 h, following which the survival percentage is estimated by MTT assay. Yellow MTT (3-(4,5-dimethylthiazol- 2-yl)-2,5-diphenyltetrazolium bromide, a tetrazole) is reduced to purple formazan in the mitochondria of living cells. The formazan is then solubilized, and the concentration is determined by optical density at 570 nm. Metabolically active cells convert MTT to formazan, thereby generating a quantitative measure of viability and cytotoxicity. Percentage of viable promastigotes in each treatment groups are determined with respect to untreated control cells.

Sequence of Leishmania donovani Topoisomerase 1 (LdTop1) (Q8WQM6 entry or part of it): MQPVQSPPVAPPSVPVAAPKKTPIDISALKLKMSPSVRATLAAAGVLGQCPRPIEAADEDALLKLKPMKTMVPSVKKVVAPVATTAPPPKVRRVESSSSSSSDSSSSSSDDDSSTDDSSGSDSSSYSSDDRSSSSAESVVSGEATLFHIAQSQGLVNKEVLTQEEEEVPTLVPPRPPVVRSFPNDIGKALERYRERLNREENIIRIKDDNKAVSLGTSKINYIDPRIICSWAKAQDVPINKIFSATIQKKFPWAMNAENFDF
Sequence of Leishmania donovani Topoisomerase 1 (LdTop1) (A0A3Q8IHS4 entry or part of it): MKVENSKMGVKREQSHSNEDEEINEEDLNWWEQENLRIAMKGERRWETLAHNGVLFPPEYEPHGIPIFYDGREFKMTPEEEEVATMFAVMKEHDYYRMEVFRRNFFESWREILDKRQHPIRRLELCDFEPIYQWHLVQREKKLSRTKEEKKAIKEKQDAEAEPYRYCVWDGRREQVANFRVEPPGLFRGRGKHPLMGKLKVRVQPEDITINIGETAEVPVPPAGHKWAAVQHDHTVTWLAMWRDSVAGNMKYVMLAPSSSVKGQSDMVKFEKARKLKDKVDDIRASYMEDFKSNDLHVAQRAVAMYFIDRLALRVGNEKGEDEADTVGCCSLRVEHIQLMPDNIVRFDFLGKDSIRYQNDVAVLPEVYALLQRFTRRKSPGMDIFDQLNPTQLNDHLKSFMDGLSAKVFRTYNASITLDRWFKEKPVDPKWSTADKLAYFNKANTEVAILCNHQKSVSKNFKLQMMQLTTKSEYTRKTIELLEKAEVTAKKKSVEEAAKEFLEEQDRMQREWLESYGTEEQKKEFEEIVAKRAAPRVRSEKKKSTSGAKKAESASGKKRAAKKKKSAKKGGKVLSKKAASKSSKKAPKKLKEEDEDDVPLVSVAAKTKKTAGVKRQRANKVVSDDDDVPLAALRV

Q: `Cc1cc2c(c(=O)[nH]1)C(=O)O/C2=C\c1ccccc1Br` [Compound 20] was tested. Which EC50 [1] did it give?
A: The EC50 was greater than 100 µM.

Q: And the EC50 (Human Top1 (HTop1))?
A: The EC50 was greater than 100 µM.

Q: With `Cc1cc2c(c(=O)[nH]1)C(=O)O/C2=C\c1ccccc1Cl` [Compound 21] as the molecule, how does the EC50 [1] read?
A: Its EC50 is greater than 100 µM.

Q: And the EC50 (Human Top1 (HTop1))?
A: The EC50 was greater than 100 µM.

Q: With `CCCCCCCCCCCCCCCCOP(=O)([O-])OCC[N+](C)(C)C` [miltefosine, reference compound] as the molecule, how does the IC50 [2] read?
A: The IC50 was roughly 1 µM.
